One experiment has as its system airway epithelium cells. Briefly: In vitro transfection study on cultured airway epithelium cells (luciferase, RLU/mg cellular protein). The experiment is classed as cell-based. The following applies: ternary complexes formed by P704, a nucleic acid and the compound. On the procedure:
In vitro transfection: For the luciferase assay, cells were seeded at a density of 1.8×10^4/well (BEAS-2B) or 3.5×10^4/well (16HBE) in 96-well plates 24 h before transfection to reach 60-80% confluence. Following removal of growth medium, cells were rinsed with DPBS (Gibco, Germany). 170 μl of fresh serum-free OptiMEM (Gibco, Germany) were added per well, and subsequently 30 μl of IVT-mRNA or pDNA containing complexes prepared, as described above, corresponding to 400 ng IVT-mRNA or pDNA per well, were added in replicates of five. After 4 h of incubation at 37° C. in a humidified 5% CO2-containing atmosphere, the transfection medium was replaced with culture medium supplemented with 10% FBS and 1% (v/v) penicillin/streptomycin. […] assayed with Metridia luciferase substrate (coelenterazine, Invivogen, France) after 24 h using a FLUOstar microplate reader (BMG Labtech, […]). In all cases each sample was measured on at least two other occasions to ensure the reproducibility of the data.

The test system of another experiment is 16HBE cells. Briefly: In vitro transfection, Metridia luciferase assay in 16HBE cells. Type of experiment: cell-based, human. The settings on record: day 2.

The star is where a group is joined. ξ: configuration not given here. Lipoyl(6ξ) = O=C(CCCCC1CCSS1)*

On to “NH2-VKRKKKPKKRRRRKKWK(DL-lipoic acid)-CONH2 (H-VKRKKKPKKRRRRKKWK(Lipoyl(6ξ))-NH2; SMILES CC(C)[C@H](N)C(=O)N[C@@H](CCCCN)C(=O)N[C@@H](CCCNC(=N)N)C(=O)N[C@@H](CCCCN)C(=O)N[C@@H](CCCCN)C(=O)N[C@@H](CCCCN)C(=O)N1CCC[C@H]1C(=O)N[C@@H](CCCCN)C(=O)N[C@@H](CCCCN)C(=O)N[C@@H](CCCNC(=N)N)C(=O)N[C@@H](CCCNC(=N)N)C(=O)N[C@@H](CCCNC(=N)N)C(=O)N[C@@H](CCCNC(=N)N)C(=O)N[C@@H](CCCCN)C(=O)N[C@@H](CCCCN)C(=O)N[C@@H](Cc1c[nH]c2ccccc12)C(=O)N[C@@H](CCCCNC(=O)CCCCC1CCSS1)C(N)=O) [compound 0 (DL)]”, for which the “transfection efficiencies of ternary complexes with compound 0 (DL) versus compound 0 (R)” value in the experiment on airway epithelium cells is “similar”. Further, the “pDNA expression compared with compound 3 containing ternary complex” value in the experiment with 16HBE cells was “similar”.
